Experimental data from patent publication US20120324604A1, “PESTICIDAL MIXTURES CONTAINING ISOXAZOLINE DERIVATIVES AND A FUNGICIDE” (priority 2010, published 2012).

How the values were obtained:
Type in all cases: cell-based
Pythium ultimum = Pythium ultimum (Damping Off) growth inhibition, microtiter plate, photometric
Experimental: Pythium ultimum (Damping Off):
Mycelial fragments of the fungus, prepared from a fresh liquid culture, were directly mixed into nutrient broth (potato dextrose broth). After placing a (DMSO) solution of the test compounds into a microtiter plate (96-well format) the nutrient broth containing the fungal spores was added.

Rhizoctonia solani = Rhizoctonia solani (Foot Rot, Damping-Off) growth inhibition, microtiter plate, photometric
Experimental: Rhizoctonia solani (Foot Rot, Damping-Off):
Mycelial fragments of the fungus from cryogenic storage were directly mixed into nutrient broth (potato dextrose broth). After placing a (DMSO) solution of the test compounds into a microtiter plate (96-well format) the nutrient broth containing the fungal spores was added.

Gaeumannomyces graminis = Gaeumannomyces graminis growth inhibition, microtiter plate, photometric
Experimental: Mycelial fragments of the fungus from cryogenic storage were directly mixed into nutrient broth (potato dextrose broth). After placing a (DMSO) solution of the test compounds into a microliter plate (96-well format) the nutrient broth containing the fungal spores was added.

[1] = test system: Glomerella lagenarium (syn. Colletotrichum lagenarium); test: Glomerella lagenarium (Anthracnose of Cucurbits) growth inhibition, microtiter plate, photometric; settings: alone
Experimental: Glomerella lagenarium (syn. Colletotrichum lagenarium), Anthracnose of Cucurbits:
(§1) Conidia of the fungus from cryogenic storage were directly mixed into nutrient broth (potato dextrose broth). After placing a (DMSO) solution of the test compounds into a microtiter plate (96-well format) the nutrient broth containing the fungal spores was added.

Septoria tritici = Septoria tritici (Leaf Blotch) growth inhibition, microtiter plate, photometric; settings: A5 alone
Experimental: Septoria tritici (Leaf Blotch):
as §1

[2] = test system: Mycosphaerella arachidis (syn. Cercospora arachidicola); test: Mycosphaerella arachidis (Brown Leaf Spot of Groundnut) growth inhibition, microtiter plate, photometric; settings: alone
Experimental: Mycosphaerella arachidis (syn. Cercospora arachidicola), Brown Leaf Spot of Groundnut (Peanut):
as §1

Fusarium culmorum = Fusarium culmorum (Root Rot) growth inhibition, microtiter plate, photometric
Experimental: Fusarium culmorum (Root Rot):
as §1

[3] = single compound at 0.0390625 ppm AI
[4] = single compound at 0.078125 ppm AI
[5] = single compound at 0.15625 ppm AI
[6] = single compound at 0.3125 ppm AI
[7] = single compound at 0.625 ppm AI

Cc1cc(C2=NOC(c3cc(Cl)cc(Cl)c3)(C(F)(F)F)C2)ccc1C(=O)NC1CSC1 (racemic) [A5]
0%: AVERAGE DEAD IN % (Pythium ultimum; [3]) | AVERAGE DEAD IN % (Pythium ultimum; [4]) | AVERAGE DEAD IN % (Pythium ultimum; [5]) | AVERAGE DEAD IN % (Pythium ultimum; [6]) | AVERAGE DEAD IN % (Pythium ultimum; [7]) | AVERAGE DEAD IN % (Pythium ultimum; single compound at 1.25 ppm AI) | AVERAGE DEAD IN % (Pythium ultimum; single compound at 2.5 ppm AI) | AVERAGE DEAD IN % (Pythium ultimum; single compound at 5 ppm AI) | AVERAGE DEAD IN % (Pythium ultimum; single compound at 10 ppm AI) | AVERAGE DEAD IN % (Pythium ultimum; single compound at 20 ppm AI) | AVERAGE DEAD IN % (Rhizoctonia solani; applied alone, 0.0390625 ppm AI) | AVERAGE DEAD IN % (Rhizoctonia solani; applied alone, 0.078125 ppm AI) | AVERAGE DEAD IN % (Rhizoctonia solani; applied alone, 0.15625 ppm AI) | AVERAGE DEAD IN % (Rhizoctonia solani; applied alone, 0.3125 ppm AI) | AVERAGE DEAD IN % (Rhizoctonia solani; applied alone, 0.625 ppm AI) | AVERAGE DEAD IN % (Rhizoctonia solani; applied alone, 1.25 ppm AI) | AVERAGE DEAD IN % (Rhizoctonia solani; applied alone, 2.5 ppm AI) | AVERAGE DEAD IN % (Rhizoctonia solani; applied alone, 5 ppm AI) | AVERAGE DEAD IN % (Rhizoctonia solani; applied alone, 10 ppm AI) | AVERAGE DEAD IN % (Rhizoctonia solani; applied alone, 20 ppm AI) | AVERAGE DEAD IN % (Rhizoctonia solani; single compound at 2.5 ppm AI) | AVERAGE DEAD IN % (Gaeumannomyces graminis; [3]) | AVERAGE DEAD IN % (Gaeumannomyces graminis; [4]) | AVERAGE DEAD IN % (Gaeumannomyces graminis; [5]) | AVERAGE DEAD IN % (Gaeumannomyces graminis; [6]) | AVERAGE DEAD IN % (Gaeumannomyces graminis; [7]) | AVERAGE DEAD IN % (Gaeumannomyces graminis; single compound at 1.25 ppm AI) | AVERAGE DEAD IN % (Gaeumannomyces graminis; single compound at 2.5 ppm AI) | AVERAGE DEAD IN % (Gaeumannomyces graminis; single compound at 5 ppm AI) | AVERAGE DEAD IN % (Gaeumannomyces graminis; single compound at 10 ppm AI) | AVERAGE DEAD IN % (Gaeumannomyces graminis; single compound at 20 ppm AI) | AVERAGE DEAD IN % ([1]; 0.0390625 ppm AI) | AVERAGE DEAD IN % ([1]; 0.078125 ppm AI) | AVERAGE DEAD IN % ([1]; 0.15625 ppm AI) | AVERAGE DEAD IN % ([1]; 0.3125 ppm AI) | AVERAGE DEAD IN % ([1]; 0.625 ppm AI) | AVERAGE DEAD IN % ([1]; 1.25 ppm AI) | AVERAGE DEAD IN % ([1]; 2.5 ppm AI) | AVERAGE DEAD IN % ([1]; 5 ppm AI) | AVERAGE DEAD IN % ([1]; 10 ppm AI) | AVERAGE DEAD IN % ([1]; 20 ppm AI) | AVERAGE DEAD IN % A5 (Septoria tritici; 0.0390625 ppm AI) | AVERAGE DEAD IN % A5 (Septoria tritici; 0.078125 ppm AI) | AVERAGE DEAD IN % A5 (Septoria tritici; 0.15625 ppm AI) | AVERAGE DEAD IN % A5 (Septoria tritici; 0.3125 ppm AI) | AVERAGE DEAD IN % A5 (Septoria tritici; 0.625 ppm AI) | AVERAGE DEAD IN % A5 (Septoria tritici; 1.25 ppm AI) | AVERAGE DEAD IN % A5 (Septoria tritici; 2.5 ppm AI) | AVERAGE DEAD IN % A5 (Septoria tritici; 5 ppm AI) | AVERAGE DEAD IN % A5 (Septoria tritici; 10 ppm AI) | AVERAGE DEAD IN % ([2]; 0.078125 ppm AI) | AVERAGE DEAD IN % ([2]; 0.15625 ppm AI) | AVERAGE DEAD IN % ([2]; 0.3125 ppm AI) | AVERAGE DEAD IN % ([2]; 0.625 ppm AI) | AVERAGE DEAD IN % ([2]; 1.25 ppm AI) | AVERAGE DEAD IN % ([2]; 2.5 ppm AI) | AVERAGE DEAD IN % ([2]; 5 ppm AI) | AVERAGE DEAD IN % ([2]; 10 ppm AI) | AVERAGE DEAD IN % ([2]; 20 ppm AI) | AVERAGE DEAD IN % ([2]; 0.0390625 PPM AI) | AVERAGE DEAD IN % ([2]; 0.078125 PPM AI) | AVERAGE DEAD IN % ([2]; 0.15625 PPM AI) | AVERAGE DEAD IN % ([2]; 0.3125 PPM AI) | AVERAGE DEAD IN % ([2]; 0.625 PPM AI) | AVERAGE DEAD IN % ([2]; 1.25 PPM AI) | AVERAGE DEAD IN % ([2]; 2.5 PPM AI) | AVERAGE DEAD IN % ([2]; 5 PPM AI) | AVERAGE DEAD IN % ([2]; 10 PPM AI) | AVERAGE DEAD IN % (Fusarium culmorum; alone, 1.25 PPM AI) | AVERAGE DEAD IN % (Fusarium culmorum; alone, 2.5 PPM AI) | AVERAGE DEAD IN % (Fusarium culmorum; alone, 5 PPM AI) | AVERAGE DEAD IN % (Fusarium culmorum; alone, 10 PPM AI) | AVERAGE DEAD IN % (Fusarium culmorum; alone, 20 PPM AI) | AVERAGE DEAD IN % (Fusarium culmorum; single compound, 0.625 PPM AI, 48 hrs, 24° C.) | AVERAGE DEAD IN % (Fusarium culmorum; single compound, 1.25 PPM AI, 48 hrs, 24° C.) | AVERAGE DEAD IN % (Fusarium culmorum; single compound, 2.5 PPM AI, 48 hrs, 24° C.) | AVERAGE DEAD IN % (Fusarium culmorum; single compound, 5 PPM AI, 48 hrs, 24° C.) | AVERAGE DEAD IN % (Fusarium culmorum; single compound, 10 PPM AI, 48 hrs, 24° C.) | AVERAGE DEAD IN % (Fusarium culmorum; single compound, 20 PPM AI, 48 hrs, 24° C.)
